“And” between values parts separate entries of the source, which are not always exact repeats. Equal values may be shown once. No end group written: not given here.
Columns and labels:
[1] = test system: E. faecium strain C68 primary metabolites; test: Targeted LC-MS/MS metabolomics; assay type: cell-based, Enterococcus faecium; conditions: 5L at 2× MIC, 30 min vs control, n = 3
Experimental: For the metabolomics sample preparation, we used exponential cultures of E. faecium strain C68 grown in BHI media adjusted to OD600 = 0.5. We treated 10 mL of this bacterial culture with 2× MIC of peptide 5L or water (for bacterial control) for 30 min at 37 °C (n = 3, technical replicates). After that, we washed the bacteria 3× times with PBS and stored the pellet at −20 °C. At a later stage, to each cell pellet, we added 0.2 mL of 2-propanol: 100 mM of NH4HCO3, pH 7.4 (1:1 v/v), and sonicated the cells. For spiking, we added 20 µL of IS to each sample and vortexed them. Subsequently, we added 1.0 mL of methanol for deproteinization and cooled the mixture at −20 °C for 10 min. After centrifugation for 10 min at 14,000× g at 4 °C, we transferred the supernatants into glass tubes and dried them under a stream of nitrogen at 40 °C. Finally, we dissolved the residues in 100 µL of water and injected 3 µL of this solution into an LC-MS/MS 8060 system (Shimadzu Scientific Inc., Columbia, MD, USA), equipped with a DUIS source operated in both positive and negative electrospray ionization modes. For the liquid chromatographic analysis, we used the Nexera UPLC system (Shimadzu Scientific Inc., Columbia, MD, USA). We quantitated primary metabolites (~150) following an established LC-MS/MS method.

E. faecium strain C68 = test: Growth inhibition assay; assay type: cell-based, Enterococcus faecium; conditions: 32 µg/mL, OD600 over 4 h
Experimental: We cultivated overnight cultures of E. faecium strain C68 in BHI media. We inoculated the bacteria in a fresh BHI medium the next day to achieve the exponential phase and adjusted the bacterial density to 1 × 10^8 CFU/mL. We added 90 µL of this bacterial culture to each well of the microtiter plates (Cat No. 3595, Corning, New York, NY, USA) containing 10 µL of serially diluted 10× peptide solution. We monitored the bacterial growth on a SpectraMax i3x spectrophotometer (Molecular Devices, San Jose, CA, USA) by taking OD600 readings every 10 min for 4 h.

RRWLWLRRWLWR-NH2 [Peptide 5L]
Fold change 2-Aminobutryc acid [1]: 0.480 fold | Fold change 4-Aminobutryc acid [1]: 4.319 fold | Fold change Adenine [1]: 0.311 fold | Fold change Adenylsuccinic acid [1]: 0.226 fold | Fold change Alanine [1]: 0.383 fold | Fold change Allantoin [1]: 2.67 fold | Fold change Arginosuccinic acid [1]: 0.204 fold | Fold change Aspartic acid [1]: 0.197 fold | Fold change Carbamoyl aspertate [1]: 2.212 fold | Fold change Citicoline [1]: 0.233 fold | Fold change Citric acid [1]: 0.244 fold | Fold change Cobalamine [1]: 2.285 fold | Fold change Cystathionine [1]: 0.369 fold | Fold change Cysteine [1]: 0.047 fold | Fold change Dopa [1]: 0.337 fold | Fold change Dopamine [1]: 3.107 fold | Fold change Fumaric acid [1]: 0.387 fold | Fold change Glutathione [1]: 0.376 fold | Fold change Guanine [1]: 0.130 fold | Fold change Guanosine [1]: 0.275 fold | Fold change Histidine [1]: 0.420 fold | Fold change Inosine [1]: 0.239 fold | Fold change Isocitric acid [1]: 0.237 fold | Fold change Isoleucine [1]: 0.458 fold | Fold change Kynureine [1]: 2.152 fold | Fold change Leucine [1]: 0.373 fold | Fold change Malic acid [1]: 0.392 fold | Fold change Methionine [1]: 0.175 fold | Fold change NAD [1]: 0.415 fold | Fold change Ornitine [1]: 0.378 fold | Fold change Oxidized glutathione [1]: 0.403 fold | Fold change Phenylalanine [1]: 0.423 fold | Fold change Putriscine [1]: 7.197 fold and 7 fold | Fold change S-Adenosylhomocysteine [1]: 0.267 fold | Fold change Serine [1]: 0.033 fold and 0.03 fold | Fold change Serotonin [1]: 2.886 fold | Fold change Succinic acid [1]: 0.204 fold | Fold change Symmetric dimethylarginine [1]: 2.347 fold | Fold change Threonine [1]: 0.384 fold | Fold change Thymidine [1]: 0.320 fold | Fold change Tryptophan [1]: 0.178 fold | Fold change Uridine [1]: 0.228 fold | Fold change Valine [1]: 0.433 fold | Fold change Xanthosine [1]: 0.315 fold

RRWLWRLRWLWR-NH2 [Peptide 6L]
growth inhibition (E. faecium strain C68): inhibited the maximum growth

Source: article PMC9404989, “Design and Evaluation of Short Bovine Lactoferrin-Derived Antimicrobial Peptides against Multidrug-Resistant Enterococcus faecium” (Antibiotics, 2022)
